# Measured values from patent US9833455B2, “Preparation and methods of use for ortho-aryl 5-membered heteroaryl-carboxamide containing multi-targeted kinase inhibitors” (Spacefill Enterprises LLC, priority 2011, dated 2017).
# Where two headings read alike, the source gives them in different places.
# Key:
# Aurora A = target: T1, Aurora A (Homo sapiens, UniProt O14965); assay: Reaction Biology P33 radiolabeled kinase assay, IC50 and time dependence; format: biochemical; details: for IC50: ATP 10 uM, read-out: Compound IC50* Aurora A
# T1 construct: purchased Reaction Biology Inc (contract assay)
# T1 sequence (O14965 1-403): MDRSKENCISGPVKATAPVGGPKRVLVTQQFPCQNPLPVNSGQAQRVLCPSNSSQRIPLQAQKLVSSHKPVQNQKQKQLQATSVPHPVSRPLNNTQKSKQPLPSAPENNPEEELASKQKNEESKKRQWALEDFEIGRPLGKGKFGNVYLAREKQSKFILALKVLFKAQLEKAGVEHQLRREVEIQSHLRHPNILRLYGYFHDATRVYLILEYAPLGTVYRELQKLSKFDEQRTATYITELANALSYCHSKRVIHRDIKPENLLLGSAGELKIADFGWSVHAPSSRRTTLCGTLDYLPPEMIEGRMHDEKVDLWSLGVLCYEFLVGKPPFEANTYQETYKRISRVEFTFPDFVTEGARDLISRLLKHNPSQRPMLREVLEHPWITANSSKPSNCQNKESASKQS
# Method: (§1) “Inhibiting kinase activity” means to decrease the production of an phosphor-peptide by a particular kinase that can be separated by analytical techniques. For example, a comprehensive platform of kinase, protease, phosphatase and epigenetic assays that utilizes cutting-edge microfluidics and informatics tools to provide accurate and rapid results. Profiling data in this application were determined using these techniques at Nanosyn Inc. IC50 data were provided by Reaction Biology Inc using a P33 radiolabeled kinase assay.
# (§2) The observation of potency and isoform selectivity with time-dependency for PI3K-γ appears to be unprecedented in the literature. In addition, these activities combined with inhibition of p38-α, Raf-1, DDR and CSF-1R, would be complimentary and potentially synergistic activities for both the treatment of certain inflammation based conditions and cancers.
# BRAF [1] = target: T2, BRAF (Homo sapiens, UniProt P15056); assay: as above; format: biochemical; details: for IC50: ATP 10 uM, read-out: Compound IC50* BRAF
# T2 construct: literature Ambit Biosciences
# Method: as §1, §2
# BRAF (V599E) = target: T3, BRAF (V599E) (Homo sapiens, UniProt P15056, V600E); assay: as above; format: biochemical; details: for IC50: ATP 10 uM, read-out: Compound IC50* BRAF (V599E)
# T3 construct: purchased Reaction Biology Inc (contract assay)
# Method: as §1, §2
# P38a/MAPK14 = target: T4, P38a/MAPK14 (Homo sapiens, UniProt Q16539); assay: as above; format: biochemical; details: for IC50: ATP 10 uM, read-out: Compound IC50* P38a/MAPK14
# T4 construct: purchased Reaction Biology Inc (contract assay)
# Method: as §1, §2
# PDGFR-α = PDGFR-α (Homo sapiens, UniProt P16234); assay: as above; format: biochemical; details: for IC50: ATP 10 uM, read-out: Compound IC50* PDGFR-α
# Method: as §1, §2
# PI3K-β = target: T5, PI3K-β (Homo sapiens, UniProt P42338); assay: as above; format: biochemical; details: for IC50: ATP 10 uM, read-out: Compound IC50* PI3K-β
# T5 construct: purchased Reaction Biology Inc (contract assay)
# Method: as §1, §2
# PI3K-γ = target: T6, PI3K-γ (Homo sapiens, UniProt P48736); assay: as above; format: biochemical; details: for IC50: ATP 10 uM, read-out: Compound IC50* PI3K-γ
# T6 construct: purchased Reaction Biology Inc (contract assay)
# Method: as §1, §2
# c-Kit = target: T7, c-Kit (Homo sapiens, UniProt P10721); assay: as above; format: biochemical; details: for IC50: ATP 10 uM, read-out: Compound IC50* c-Kit
# T7 construct: purchased Reaction Biology Inc (contract assay)
# Method: as §1, §2
# BRAF [2] = target: T2, BRAF; details: 1 μM, duplicate, without preincubation; cited from earlier work
# CSF1R [3] = target: T8, CSF1R (Homo sapiens, UniProt P07333); details: 1 μM, duplicate, without preincubation; cited from earlier work
# T8 construct: literature Ambit Biosciences
# EGFR = target: T9, EGFR (Homo sapiens, UniProt P00533); details: 1 μM, duplicate, without preincubation; cited from earlier work
# T9 construct: literature Ambit Biosciences
# EGFR(L858R) = target: T10, EGFR(L858R) (Homo sapiens, UniProt P00533, L858R); details: 1 μM, duplicate, without preincubation; cited from earlier work
# T10 construct: literature Ambit Biosciences
# ERBB2 = target: T11, ERBB2 (Homo sapiens, UniProt P04626); details: 1 μM, duplicate, without preincubation; cited from earlier work
# T11 construct: literature Ambit Biosciences
# KIT = KIT (Homo sapiens, UniProt P10721); details: 1 μM, duplicate, without preincubation; cited from earlier work
# MKNK2 = target: T12, MKNK2 (Homo sapiens, UniProt Q9HBH9); details: 1 μM, duplicate, without preincubation; cited from earlier work
# T12 construct: literature Ambit Biosciences
# p38-alpha = target: T13, p38-alpha (Homo sapiens, UniProt Q16539); details: 1 μM, duplicate, without preincubation; cited from earlier work
# T13 construct: literature Ambit Biosciences
# RIOK2 = target: T14, RIOK2 (Homo sapiens, UniProt Q9BVS4); details: 1 μM, duplicate, without preincubation; cited from earlier work
# T14 construct: literature Ambit Biosciences
# VEGFR2 = target: T15, VEGFR2 (Homo sapiens, UniProt P35968); details: 1 μM, duplicate, without preincubation; cited from earlier work
# T15 construct: literature Ambit Biosciences
# CSF1R [4] = target: T8, CSF1R; details: cited from earlier work
# BRAF(V600E) = BRAF(V600E) (Homo sapiens, UniProt P15056, V600E); parameters: literature Ambit Biosciences; details: 1 μM, duplicate, without preincubation; cited from earlier work
# EPHA2 = EPHA2 (Homo sapiens, UniProt P29317); parameters: literature Ambit Biosciences; details: 1 μM, duplicate, without preincubation; cited from earlier work
# FGFR3 = target: T16, FGFR3 (Homo sapiens, UniProt P22607); details: 1 μM, duplicate, without preincubation; cited from earlier work
# T16 construct: literature Ambit Biosciences
# IKK-alpha = target: T17, IKK-alpha (Homo sapiens, UniProt O15111); details: 1 μM, duplicate, without preincubation; cited from earlier work
# T17 construct: literature Ambit Biosciences
# PCTK1 = target: T18, PCTK1 (Homo sapiens, UniProt Q00536); details: 1 μM, duplicate, without preincubation; cited from earlier work
# T18 construct: literature Ambit Biosciences
# ULK2 = target: T19, ULK2 (Homo sapiens, UniProt Q8IYT8); details: 1 μM, duplicate, without preincubation; cited from earlier work
# T19 construct: literature Ambit Biosciences
# T4 sequence (Q16539 whole entry): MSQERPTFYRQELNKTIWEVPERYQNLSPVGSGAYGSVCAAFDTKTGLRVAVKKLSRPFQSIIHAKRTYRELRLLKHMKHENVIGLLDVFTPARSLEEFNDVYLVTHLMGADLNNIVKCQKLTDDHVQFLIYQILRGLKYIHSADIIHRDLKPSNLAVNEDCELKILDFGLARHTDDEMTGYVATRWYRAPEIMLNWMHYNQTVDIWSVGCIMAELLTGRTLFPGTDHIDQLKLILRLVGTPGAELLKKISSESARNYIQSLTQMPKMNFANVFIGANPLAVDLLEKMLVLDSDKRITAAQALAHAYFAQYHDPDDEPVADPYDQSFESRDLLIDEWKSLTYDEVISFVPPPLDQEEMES
# T6 sequence (P48736 whole entry): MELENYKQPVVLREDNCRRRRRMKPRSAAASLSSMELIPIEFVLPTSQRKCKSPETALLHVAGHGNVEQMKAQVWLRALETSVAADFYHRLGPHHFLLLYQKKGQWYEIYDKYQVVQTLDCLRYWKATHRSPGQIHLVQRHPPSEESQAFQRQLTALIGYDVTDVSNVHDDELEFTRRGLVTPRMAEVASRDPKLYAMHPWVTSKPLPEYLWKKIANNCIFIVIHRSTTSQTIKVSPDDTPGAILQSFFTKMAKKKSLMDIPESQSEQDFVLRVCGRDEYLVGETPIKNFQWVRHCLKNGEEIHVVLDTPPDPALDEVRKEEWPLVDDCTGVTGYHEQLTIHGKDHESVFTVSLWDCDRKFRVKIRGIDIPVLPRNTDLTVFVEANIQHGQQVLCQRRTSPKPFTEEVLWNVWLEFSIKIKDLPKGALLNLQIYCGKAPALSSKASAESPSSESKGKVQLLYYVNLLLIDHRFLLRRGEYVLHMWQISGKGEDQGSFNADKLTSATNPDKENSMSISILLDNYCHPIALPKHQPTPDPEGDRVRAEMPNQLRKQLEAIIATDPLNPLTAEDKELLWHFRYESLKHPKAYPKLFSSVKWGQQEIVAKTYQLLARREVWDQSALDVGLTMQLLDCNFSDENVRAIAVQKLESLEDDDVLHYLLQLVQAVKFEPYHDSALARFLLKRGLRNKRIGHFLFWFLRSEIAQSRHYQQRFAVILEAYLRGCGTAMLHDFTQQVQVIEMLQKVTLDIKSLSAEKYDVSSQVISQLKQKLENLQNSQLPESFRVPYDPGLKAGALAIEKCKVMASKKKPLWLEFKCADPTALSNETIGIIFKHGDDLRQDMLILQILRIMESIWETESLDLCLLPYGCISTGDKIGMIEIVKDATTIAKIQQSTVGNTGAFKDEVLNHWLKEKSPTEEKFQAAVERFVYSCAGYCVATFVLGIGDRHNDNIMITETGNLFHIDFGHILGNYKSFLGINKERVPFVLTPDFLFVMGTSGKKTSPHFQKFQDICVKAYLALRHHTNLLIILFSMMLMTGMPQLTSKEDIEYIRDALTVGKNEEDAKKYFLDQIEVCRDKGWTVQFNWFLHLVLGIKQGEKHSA
# T2 sequence (P15056 whole entry): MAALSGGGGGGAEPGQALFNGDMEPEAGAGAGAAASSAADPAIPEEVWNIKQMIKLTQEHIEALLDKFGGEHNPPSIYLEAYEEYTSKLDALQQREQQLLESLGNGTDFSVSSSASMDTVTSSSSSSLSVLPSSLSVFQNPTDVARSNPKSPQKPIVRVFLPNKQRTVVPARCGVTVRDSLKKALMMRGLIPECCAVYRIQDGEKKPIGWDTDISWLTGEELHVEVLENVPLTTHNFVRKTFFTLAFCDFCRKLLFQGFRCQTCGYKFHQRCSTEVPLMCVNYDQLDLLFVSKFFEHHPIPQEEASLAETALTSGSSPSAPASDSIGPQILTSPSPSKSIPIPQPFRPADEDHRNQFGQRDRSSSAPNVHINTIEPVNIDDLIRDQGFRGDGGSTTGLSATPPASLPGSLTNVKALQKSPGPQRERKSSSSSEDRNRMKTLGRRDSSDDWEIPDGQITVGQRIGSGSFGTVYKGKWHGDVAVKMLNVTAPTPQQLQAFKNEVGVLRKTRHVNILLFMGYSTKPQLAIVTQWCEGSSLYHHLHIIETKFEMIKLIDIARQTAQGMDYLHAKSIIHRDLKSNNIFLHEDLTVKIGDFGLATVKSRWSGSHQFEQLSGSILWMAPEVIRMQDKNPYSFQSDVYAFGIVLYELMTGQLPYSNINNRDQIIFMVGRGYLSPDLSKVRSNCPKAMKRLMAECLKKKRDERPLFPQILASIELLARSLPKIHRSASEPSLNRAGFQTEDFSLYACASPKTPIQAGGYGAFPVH
# T3 sequence (P15056 2-766 V600E): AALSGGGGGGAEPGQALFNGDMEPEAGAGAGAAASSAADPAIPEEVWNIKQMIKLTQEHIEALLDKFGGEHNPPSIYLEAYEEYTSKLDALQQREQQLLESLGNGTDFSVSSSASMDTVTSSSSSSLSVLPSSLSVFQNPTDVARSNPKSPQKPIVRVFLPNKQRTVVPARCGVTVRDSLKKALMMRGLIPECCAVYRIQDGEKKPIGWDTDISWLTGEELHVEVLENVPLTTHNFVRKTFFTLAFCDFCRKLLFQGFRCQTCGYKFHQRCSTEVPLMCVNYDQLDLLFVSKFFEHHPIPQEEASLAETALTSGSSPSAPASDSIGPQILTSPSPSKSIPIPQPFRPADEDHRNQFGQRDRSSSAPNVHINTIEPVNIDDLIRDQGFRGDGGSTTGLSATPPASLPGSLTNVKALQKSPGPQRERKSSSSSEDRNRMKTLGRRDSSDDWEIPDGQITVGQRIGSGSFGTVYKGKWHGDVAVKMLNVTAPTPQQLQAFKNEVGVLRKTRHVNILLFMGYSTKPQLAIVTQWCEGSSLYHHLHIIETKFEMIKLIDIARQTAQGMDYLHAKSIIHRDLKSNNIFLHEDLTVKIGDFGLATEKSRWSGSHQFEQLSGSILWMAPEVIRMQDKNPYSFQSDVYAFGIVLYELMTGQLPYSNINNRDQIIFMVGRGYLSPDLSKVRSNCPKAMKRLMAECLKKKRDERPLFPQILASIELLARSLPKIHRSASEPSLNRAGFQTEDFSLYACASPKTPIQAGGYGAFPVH
# T7 sequence (P10721 26-976): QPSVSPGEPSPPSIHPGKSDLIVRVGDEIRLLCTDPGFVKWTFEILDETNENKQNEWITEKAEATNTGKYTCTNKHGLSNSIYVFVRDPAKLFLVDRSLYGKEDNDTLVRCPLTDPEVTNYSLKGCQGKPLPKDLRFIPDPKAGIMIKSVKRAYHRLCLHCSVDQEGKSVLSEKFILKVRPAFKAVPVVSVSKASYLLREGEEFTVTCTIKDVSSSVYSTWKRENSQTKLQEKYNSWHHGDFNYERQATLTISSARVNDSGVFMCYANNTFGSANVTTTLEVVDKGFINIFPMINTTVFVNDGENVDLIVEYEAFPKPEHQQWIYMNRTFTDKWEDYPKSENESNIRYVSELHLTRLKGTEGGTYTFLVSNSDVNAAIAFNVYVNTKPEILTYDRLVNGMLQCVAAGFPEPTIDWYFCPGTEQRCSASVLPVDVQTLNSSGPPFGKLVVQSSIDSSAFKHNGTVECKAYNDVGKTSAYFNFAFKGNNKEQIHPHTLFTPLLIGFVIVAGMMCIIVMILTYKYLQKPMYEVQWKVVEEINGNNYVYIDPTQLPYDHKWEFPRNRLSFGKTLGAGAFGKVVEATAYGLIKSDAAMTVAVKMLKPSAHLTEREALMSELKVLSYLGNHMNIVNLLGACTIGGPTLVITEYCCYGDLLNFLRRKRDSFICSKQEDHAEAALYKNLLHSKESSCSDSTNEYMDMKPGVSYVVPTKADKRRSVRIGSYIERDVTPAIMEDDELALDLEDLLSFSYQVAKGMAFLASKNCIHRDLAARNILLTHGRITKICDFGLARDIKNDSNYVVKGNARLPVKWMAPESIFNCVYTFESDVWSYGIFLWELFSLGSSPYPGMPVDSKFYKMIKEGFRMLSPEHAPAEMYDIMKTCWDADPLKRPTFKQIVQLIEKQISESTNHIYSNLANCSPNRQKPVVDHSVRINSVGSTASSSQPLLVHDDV
# Chain of PDGFR-α (P16234 24-1089): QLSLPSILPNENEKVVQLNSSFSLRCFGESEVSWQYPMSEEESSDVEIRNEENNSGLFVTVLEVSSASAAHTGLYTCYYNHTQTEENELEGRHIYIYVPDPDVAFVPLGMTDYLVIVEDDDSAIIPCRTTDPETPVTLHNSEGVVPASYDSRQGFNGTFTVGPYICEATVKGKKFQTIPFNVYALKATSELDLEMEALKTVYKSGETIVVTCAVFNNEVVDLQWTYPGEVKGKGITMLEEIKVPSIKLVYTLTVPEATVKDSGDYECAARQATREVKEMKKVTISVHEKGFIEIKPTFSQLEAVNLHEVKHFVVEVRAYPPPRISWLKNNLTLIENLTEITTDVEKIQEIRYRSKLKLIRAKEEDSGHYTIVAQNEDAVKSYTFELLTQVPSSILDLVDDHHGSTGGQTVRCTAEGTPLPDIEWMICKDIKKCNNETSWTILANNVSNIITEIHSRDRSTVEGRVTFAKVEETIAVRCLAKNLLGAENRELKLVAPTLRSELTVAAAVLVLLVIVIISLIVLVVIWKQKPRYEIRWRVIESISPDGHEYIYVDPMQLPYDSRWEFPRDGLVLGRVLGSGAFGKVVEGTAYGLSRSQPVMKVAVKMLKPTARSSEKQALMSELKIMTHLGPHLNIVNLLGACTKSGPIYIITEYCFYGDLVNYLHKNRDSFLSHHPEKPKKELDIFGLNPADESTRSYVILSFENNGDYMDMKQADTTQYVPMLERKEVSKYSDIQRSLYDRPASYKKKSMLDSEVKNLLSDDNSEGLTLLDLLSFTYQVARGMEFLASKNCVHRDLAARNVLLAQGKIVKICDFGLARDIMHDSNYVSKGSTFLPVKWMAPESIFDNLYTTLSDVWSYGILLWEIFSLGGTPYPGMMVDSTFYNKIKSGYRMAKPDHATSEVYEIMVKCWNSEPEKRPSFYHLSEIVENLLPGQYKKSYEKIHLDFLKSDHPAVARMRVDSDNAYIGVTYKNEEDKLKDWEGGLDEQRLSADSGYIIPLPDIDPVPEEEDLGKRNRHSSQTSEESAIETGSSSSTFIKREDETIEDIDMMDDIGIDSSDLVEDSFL
# T13 sequence (Q16539 whole entry): as the sequence (Q16539 whole entry) above
# Chain of BRAF(V600E) (P15056 whole entry V600E): as the sequence (P15056 whole entry) above, with V600E counted along it
smiles,measurement,setting,value
"Cc1ccc(NC(=O)c2nc(S(C)(=O)=O)[nH]c2-c2ccc(F)cc2)cc1Nc1nccc(-c2cccnc2)n1 [Inhibitor I-14, 3-(4-(pyridin-3-yl)-pyrimidinyl-2-yl)amino-4-methyl-analine, 5-(4-Fluorophenyl)-2-(methylsulfonyl)-1H-imidazole-4-carboxamide]",Time Dependence Observed? Aurora A,Aurora A; 15 vs 60 Min preincubation,No
same,IC50,Aurora A; preincubation 15 Min,2740 nM
same,IC50,Aurora A; preincubation 60 Min,2630 nM
same,Time Dependence Observed? BRAF,BRAF [1]; 15 vs 60 Min preincubation,Yes
same,IC50,BRAF [1]; preincubation 15 Min,388 nM
same,IC50,BRAF [1]; preincubation 60 Min,323 nM
same,Time Dependence Observed? BRAF (V599E),BRAF (V599E); 15 vs 60 Min preincubation,No
same,IC50,BRAF (V599E); preincubation 15 Min,194 nM
same,IC50,BRAF (V599E); preincubation 60 Min,194 nM
same,Time Dependence Observed? P38a/MAPK14,P38a/MAPK14; 15 vs 60 Min preincubation,No
same,IC50,P38a/MAPK14; preincubation 15 Min,150 nM
same,IC50,P38a/MAPK14; preincubation 60 Min,150 nM
same,Time Dependence Observed? PDGFR-α,PDGFR-α; 15 vs 60 Min preincubation,No
same,IC50,PDGFR-α; preincubation 15 Min,178 nM
same,IC50,PDGFR-α; preincubation 60 Min,342 nM
same,Time Dependence Observed? PI3K-β,PI3K-β; 15 vs 60 Min preincubation,Yes
same,IC50,PI3K-β; preincubation 15 Min,12600 nM
same,IC50,PI3K-β; preincubation 60 Min,2910 nM
same,Time Dependence Observed? PI3K-γ,PI3K-γ; 15 vs 60 Min preincubation,Yes
same,IC50,PI3K-γ; preincubation 15 Min,127 nM
same,IC50,PI3K-γ; preincubation 60 Min,57.8 nM
same,Time Dependence Observed? c-Kit,c-Kit; 15 vs 60 Min preincubation,No
same,IC50,c-Kit; preincubation 15 Min,772 nM
same,IC50,c-Kit; preincubation 60 Min,987 nM
Cc1ccc(NC(=O)c2[nH]c(C(F)(F)F)nc2-c2ccc(F)cc2)cc1Nc1ccc2ncn(C)c(=O)c2c1 [KIN-035],inhibition of BRAF,BRAF [2],XXXX (XXXX > 90% @ 1 μM)
same,inhibition of CSF1R,CSF1R [3],XXX (XXX > 75% @ 1 μM)
same,inhibition of EGFR,EGFR,X (X > 25% @ 1 μM)
same,inhibition of EGFR(L858R),EGFR(L858R),X (X > 25% @ 1 μM)
same,inhibition of ERBB2,ERBB2,X (X > 25% @ 1 μM)
same,inhibition of KIT,KIT,XXXX (XXXX > 90% @ 1 μM)
same,inhibition of MKNK2,MKNK2,X (X > 25% @ 1 μM)
same,inhibition of p38-alpha,p38-alpha,XXXX (XXXX > 90% @ 1 μM)
same,inhibition of RIOK2,RIOK2,X (X > 25% @ 1 μM)
same,inhibition of VEGFR2,VEGFR2,X (X > 25% @ 1 μM)
same,"improved potency for CSF1R, KIN-032 vs KIN-035 (4-fluoro-substituent)",CSF1R [4],70 fold
same,inhibition of BRAF(V600E),BRAF(V600E),XXXX (XXXX > 90% @ 1 μM)
same,inhibition of EPHA2,EPHA2,XX (XX > 50% @ 1 μM)
Cc1ccc(-c2nc(C(F)(F)F)[nH]c2C(=O)Nc2ccc(C)c(Nc3ccc4ncn(C)c(=O)c4c3)c2)cc1F [KIN-038],inhibition of BRAF,BRAF [2],XXX (XXX > 75% @ 1 μM)
same,inhibition of ERBB2,ERBB2,X (X > 25% @ 1 μM)
same,inhibition of FGFR3,FGFR3,X (X > 25% @ 1 μM)
same,inhibition of IKK-alpha,IKK-alpha,X (X > 25% @ 1 μM)
same,inhibition of KIT,KIT,XXXX (XXXX > 90% @ 1 μM)
same,inhibition of p38-alpha,p38-alpha,XX (XX > 50% @ 1 μM)
same,inhibition of PCTK1,PCTK1,X (X > 25% @ 1 μM)
same,inhibition of RIOK2,RIOK2,X (X > 25% @ 1 μM)
same,inhibition of ULK2,ULK2,X (X > 25% @ 1 μM)
same,inhibition of BRAF(V600E),BRAF(V600E),XXXX (XXXX > 90% @ 1 μM)
